Experimental findings from patent US12329739B2, “Isoflavonoid compounds and methods for the treatment of cancer” (Aardvark Therapeutics, Inc., priority 2010, dated 2025) are described below.

For one experiment, the system named is LNCaP. Nature of the experiment: MTT proliferation assay, LNCaP. It counts as cell-based. Conditions: Homo sapiens, Prostate, 120 h of exposure. Here is the method: (§1) Proliferation Assays. IC50 values were determined for each cell line. Cells were seeded in 96-well plates at an appropriate cell density as determined from growth kinetics analysis and cultured for 5 days in the absence and presence of the test compounds. Cell proliferation was assessed after the addition of 20 μl of 3-4,5 dimethylthiazol-2,5-diphenyl tetrazolium bromide (MTT, 5 mg/ml in PBS, Sigma) for 5 hrs at 37° C. according to manufacturer's instructions. IC50 values were calculated from semi-log plots of % of control proliferation on the y-axis against log dose on the x-axis.
(§2) Anti-proliferative Activity of Isoflavonoid Derivatives. IC50 values were determined for each cell line after 120 h of exposure.
(In general: Tetrazolium dyes change colour on reduction, which living cells bring about.)

The subject of a further experiment is PC3. Put plainly: MTT proliferation assay, PC3. It counts as cell-based. In short, it runs like this: (§3)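 Growth is compared with untreated wells after 120 h of drug treatment, using MTT (5 hrs, 37° C) as the viability signal; IC50 is interpolated from log dose-response plots.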
The subject of a further experiment is CP70. Put plainly: MTT proliferation assay, CP70. It counts as cell-based. In short, it runs like this:
as §3

For a further experiment, the system named is MM200. Put plainly: MTT proliferation assay, MM200. As to conditions: Melanoma, MM200, 120 h of exposure. Format: cell-based. On the procedure:
as §1, §2

In the next experiment the test system is HepG2. Put plainly: MTT proliferation assay, HepG2. As to conditions: Homo sapiens; Liver, HepG2, 120 h of exposure. It counts as cell-based, human. Here is the method:
(§4) The human hepatocellular carcinoma lines HepG2 (HB-8065), SK-HEP-1 (HTB-52) and the normal human lung fibroblast line IMR-90 (CCL-186) were cultured in Minimum Essential Eagles Medium containing 2 mM L-glutamine, 2.2 g/L sodium bicarbonate, supplemented with 1 mM sodium pyruvate and 0.1 mM non-essential amino acids. The human hepatocellular carcinoma line JHH-1 (JCRB1062) was cultured in Williams E Medium (Invitrogen) containing 2.2 g/L sodium bicarbonate, supplemented with 2 mM L-glutamine. The hepatocellular carcinoma line HuH-7 (JCRB0403) was cultured in DMEM, supplemented with 2 mM L-glutamine.
as §1, §2

The next experiment has as its system NCI-H460. Nature of the experiment: MTT proliferation assay, NCI-H460. Format: cell-based, human. As to conditions: Homo sapiens; NSCLC, NCI-H460, 120 h of exposure. Here is the method: (§5) The human non-small cell lung adenocarcinoma lines NCI-H1299 (CRL-5803), NCI-H460 (HTB-177), NCI-H358 (CRL-5807), NCI-H838 (CRL-5844), the human colorectal adenocarcinoma lines COLO 205 (CCL-222), HCT-15 (CCL-225) and the human gastric cancer cell line NCI-N87 (CRL-5822) were cultured in RPMI 1640 medium containing 2 g/L sodium bicarbonate (Hyclone/Invitrogen) supplemented with 2 mM L-glutamine (Gibco) 1 mM sodium pyruvate (Sigma), 10 mM HEPES (Sigma) and 4500 mg/L glucose (Sigma). The human non-small cell lung adenocarcinoma line NCI-H2126 (CCL-256) was cultured in DMEM:F12(1:1) (Hyclone/Invitrogen) containing 2.5 mM L-glutamine 2.4 g/L sodium bicarbonate supplemented with 5% fetal bovine serum (FBS), an additional 2 mM L-glutamine, 15 mM HEPES, 0.005 mg/ml insulin (Sigma), 0.01 mg/ml transferrin (Sigma), 30 nM sodium selenite (Sigma), 10 nM hydrocortisone (Sigma) and 10 nM beta-estradiol (Sigma). The human colorectal adenocarcinoma line HT-29 (HTB-38) and the human gastric cancer cell lines OE-19 (#96071721) and MKN1 (JCRB0252) were cultured in RPMI 1640 media supplemented with 2 mM L-glutamine.
as §1, §2

The test system of another experiment is HuH-7. Nature of the experiment: MTT proliferation assay, HuH-7. Format: cell-based, human. Conditions: Homo sapiens; Liver, HuH-7, 120 h of exposure. On the procedure:
as §4, §1, §2

A further experiment has as its system CALU3. Put plainly: MTT proliferation assay, CALU3. It counts as cell-based. Conditions: Homo sapiens, Calu-3; NSCLC, CALU3, 120 h of exposure. Here is the method:
as §1, §2

For another experiment, the system named is MM2200. Put plainly: MTT proliferation assay, MM2200. Conditions: Table 2, Melanoma, MM2200, 120 hrs of exposure. Format: cell-based. On the procedure:
as §1, §2
Activity data is provided is Table 2.

The test system of another experiment is COLO205. Nature of the experiment: MTT proliferation assay, COLO205. As to conditions: Homo sapiens, COLO 205; CRC, COLO205, 120 h of exposure. Format: cell-based, human. On the procedure:
as §5, §1, §2

The next experiment has as its system MDA-MB-468. Put plainly: MTT proliferation assay, MDA-MB-468. It counts as cell-based, human. Put shortly:
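MDA-MB-468 breast adenocarcinoma cells were grown in DMEM:F12 with added L-glutamine, then exposed to compound for 5 days (120 h). MTT was added for 5 h at 37 °C. IC50 came from semi-log plots of % control proliferation against log dose.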

In a further experiment the test system is SK-Hep-1. Put plainly: MTT proliferation assay, SK-Hep-1. Format: cell-based, human. As to conditions: Homo sapiens, SK-HEP1; Liver, SK-Hep-1, 120 h of exposure. On the procedure: as §4, §1, §2
The next experiment relates to SKBR-3. Nature of the experiment: MTT proliferation assay, SKBR-3. It counts as cell-based, human. Put shortly:
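SK-BR-3 breast adenocarcinoma cells in McCoy's 5a medium were exposed to compounds for 5 days (120 h). Proliferation was read by MTT over 5 hrs at 37° C. IC50 came from semi-log plots of % control proliferation against log dose.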

Structures are written as SMILES.

Usually IC50 stands for the concentration that gives 50% inhibition. Read a high IC50 as weaker potency in that assay. `Oc1ccc([C@H]2c3ccc(O)cc3OC[C@H]2c2ccc(O)cc2)cc1` [Compound 31, d-cis-3-(4-hydroxyphenyl)-4-(4-hydroxyphenyl)chroman-7-ol]: the IC50 lay within 150 to 500 nM in the experiment with LNCaP; 150 to 500 nM in the experiment with PC3 (Homo sapiens, PC-3, 120 h, Prostate, PC3, 120 h of exposure); 150 to 500 nM with PC3 (Table 2, Prostate, PC3, 120 hrs of exposure); 510 to 1500 nM with CP70 (120 h, Ovarian, CP70, 120 h of exposure); 150 to 500 nM in the experiment on CP70 (Table 2, Ovarian, CP70, 120 hrs of exposure); 510 to 1500 nM in the experiment with MM200. Besides, the IC50 in the experiment with HepG2 lay within 150 to 500 nM; with NCI-H460, 510 to 1500 nM; with HuH-7 it was 150 to 500 nM; in the experiment on CALU3, 150 to 500 nM; in the experiment with MM2200 it was 510 to 1500 nM; in the experiment on COLO205, 1600 to 10000 nM. Also, the IC50 was no more than 150 nM in the experiment with MDA-MB-468 (Homo sapiens, MDA-MB-468, 120 h, Breast, MDA-MB-468, 120 h of exposure); no more than 150 nM in the experiment with MDA-MB-468 (Table 2, Breast, MDA-MB-468, 120 hrs of exposure); 150 to 500 nM in the experiment with SK-Hep-1; no more than 150 nM with SKBR-3 (Homo sapiens, SK-BR-3, 120 h, Breast, SKBR-3, 120 h of exposure); no more than 150 nM in the experiment with SKBR-3 (Table 2, Breast, SKBR-3, 120 hrs of exposure).
